Reference: patent US7569239B2, “Antioxidative compositions” (priority 2002, dated 2009)

System: colitis (colon growth caused by inflammation)
Test: DNBS-induced colitis in rats (animal model for inflammatory bowel disease)
Type: in vivo, male Spregue-Dawley rats
Conditions: oral once a day for 7 days, rat
Method: In one experiment, male Spregue-Dawley rats (150-180 gram; Charles River Lab, Boston, Mass.) were kept in filter-topped cages with free access to food and water, and housed in a positive pressure room with controlled temperature and photoperiod during studies. As an animal model for inflammatory bowel disease (e.g., Crohn's disease), colitis (colon growth caused by inflammation) was induced by intracolonic instillation of 25 mg of a hapten reagent, 2,4-dinitrobenzenesulfonic acid (TCI, Japan), in 0.5 ml of 30% vol/vol ethanol. Each rat was first anaesthetized with […]/ethanol was injected into the colon, 8 cm proximal to the anus, with a PE 50 cannula. 2 ml of air was then gently injected through the cannula to ensure that the solution remained in the colon. The rat was then kept in a vertical position for 30 second and returned to its cage. By using the same procedures, rats in the blank-control group received 0.5 ml of 30% ethanol. See Hogaboam, et al., Eur. J. Pharmacol. (1996) 309:261-269. […] Each daily dose contained 3.125 mg to 25 mg of quercetin aglycon for each kilogram of body weight. The weight of each rat was monitored every 24 hours. […] Before removal of each colon, the presence or absence of adhesions between the colon and other organs were recorded upon opening the abdominal cavity. The colon-to-body weight ratio was then calculated for each animal. […]

O=c1c(O)c(-c2ccc(O)c(O)c2)oc2cc(O)cc(O)c12 [quercetin aglycon]
inhibition of colon growth (colon-to-body weight ratio) (3.125 mg/kg quercetin aglycon): failed to do so
inhibition of colon growth (colon-to-body weight ratio) (25 mg/kg quercetin aglycon): inhibited colon growth
